PMC7010297, “How the initiating ribosome copes with ppGpp to translate mRNAs” (PLoS Biology, 2020)
Where “and” joins values, the source holds several entries; their conditions need not be identical. Equal entries are not always repeated. Where two headings read alike, the source gives them in different places.

Tests used:
30S IC = 30S IC (Escherichia coli, UniProt P0A705); experiment: ppGpp tolerance of 30S IC formation by MST; assay type: binding; set-up: 6xHis (N); made in house
Procedure: Fig 7 SETIs and ppGpp tolerance. (A) Translation initiation efficiency as a function of mRNAs along five steps of transition from NS to S conditions. […] Symbols and error bars represent averages of three replicates and standard deviations, respectively (S1 Data). (C) Comparison of ppGpp tolerance as calculated from the ratio of translation initiation efficiencies found in the presence of 0.2 mM ppGpp over the efficiencies obtained in the absence of the alarmone (S1 Data). […] All 30S IC components are as in Fig 1. Dashed line indicates the average tolerance of all mRNAs lacking the SETI element.

[1] = biological target: T1, 70S pre-IC (50S joining to 30S IC) (Escherichia coli, UniProt P0A705); experiment: 70S pre-IC formation by light scattering, stopped-flow; assay type: biochemical; set-up: K1, best-fit value / k2, best-fit value: unit not given here; details: for A0, best-fit value / K1, best-fit value / k2, best-fit value: fit Y=A0+A1*exp(-K1*x)+k2*x; for kfast (s-1) Avg: light scattering
T1 construct: 6xHis (N); made in house
Procedure: (§1) Continuous lines indicate nonlinear regression fittings with a quadratic equation. Three measurements were performed; mean and standard deviation are plotted (S1 Data). (B) as (A) to measure the concentration dependence for each tested guanosine nucleotide at constant IF2 (1 μM). […] Continuous lines show best fits using exponential functions. (D) Formation of 70S IC as measured by Bpy-tRNAi accommodation in the P site of the ribosome; 0.1 μM 30S ICs were formed with Bpy-tRNAi and rapidly mixed with 0.3 μM 50S subunits on a stopped-flow apparatus as described in [14]. Colors are as in (C). Continuous lines show best fits using an exponential function for a single reaction step. Each stopped-flow trace results from the mean of 5 to 7 replicates.
(§2) (A) Scheme of 70S IC formation. […] Time traces were analyzed by nonlinear regression with exponential terms. […] Formation of 70S IC, as measured by Bpy-tRNAi accommodation in the absence (F) or presence of 200 μM ppGpp (G). Time traces were analyzed by nonlinear regression with one exponential term. […] Continuous lines show best fits using an exponential function for a single reaction step. All time traces are mean values of 5 to 10 replicates. Bar graphs show mean and standard errors (error bars) derived from the nonlinear regression fitting (D,E,H,I) (S1 Data).
(§3) To measure 70S pre-IC formation, a SX-20 stopped-flow instrument (Applied Photophysics, Leatherhead, UK) was set up for LS recording with an excitation wavelength of 430 nm. Scattered light was measured at an angle of 90° without a filter. Pseudo first-order conditions were approximated by using ≥3-fold excess of 50S subunits over 30S ICs; 0.2 μM 30S ICs were rapidly mixed in the instrument with 0.6 μM 50S at 25 °C. Bpy-tRNAi accommodation was measured essentially as described elsewhere. Briefly, 0.2 μM 30S ICs were formed using Bpy-tRNAi and rapidly mixed with 0.6 μM 50S at 25 °C. Fluorescence was excited at 470 nm and measured after a 495-nm longpass filter. Individual traces (6–11 traces) were averaged, and the resulting kinetic curve was approximated by single (F = A0 + A1*exp (-kapp1*t)) or double (F = A0 + A1*exp (-kapp1*t) + A2*exp (-kapp2*t)) exponential fit using Graphpad Prism 6.0 software (GraphPad, San Diego, California).

[2] = system: mRNA translation (protein synthesis); experiment: In vitro translation in pure cell-free system (PURExpress, Lumio labelling); assay type: biochemical
Procedure: Fig 5 Permissive ppGpp-mediated inhibition of mRNA translation. (A) Scheme of the translating 70S complex. (B) In vitro translation of mTufA and mInfA derivatives harboring a coding sequence for the Lumio labelling system (Experimental conditions and analysis). […] Synthetized proteins were fluorescently labelled and resolved by 20% SDS-PAGE. The resulting images were analyzed by pixel densitometry using ImageJ [37] to estimate translation efficiencies (TEs). […] (D) Comparison of inhibitory constants for both mRNAs as measured during 30S IC formation (white) or overall translation efficiency (gray). Mean and standard deviations from three measurements are plotted (S1 Data). GTP, guanosine triphosphate; mInfA, InfA mRNA; mTufA, TufA mRNA; TE, translation efficiency.
In order to visualize overall protein synthesis, we used a coupled transcription-translation cell-free system. Reactions were carried out in 10 μL of the purified components from the PURExpress In Vitro Protein Synthesis Kit (E6800S/L, NEB, Ipswich, Massachusetts) with the corresponding templates. These reactions were incubated at 37°C for 2 hours. […] After incubation, sample processing and fluorescent labelling were carried out as described by the Lumio Green Detection Kit (LC6090, ThermoScientific, Waltham, Massachusetts) for in vitro reactions. Finally, 20 μL of labelled samples were loaded into 20% SDS-PAGE gels and visualized under a Blue-light LED transilluminator with orange filter (Cleaver Scientific LTD, Warwickshire, UK). Gel quantification was performed by pixel densitometry analysis using ImageJ software.

70S IC = biological target: T2, 70S IC (Escherichia coli, UniProt P0A705); experiment: 70S IC formation by Bpy-tRNAi accommodation, stopped-flow; assay type: biochemical; set-up: K1, best-fit value: unit not given here; details: for A0, best-fit value / A1, best-fit value / K1, best-fit value / k2, best-fit value: fit Y=A0+A1*exp(-K1*x)+k2*x; for kfast (s-1) Avg: fluorescence
T2 construct: 6xHis (N); made in house
Procedure: as §1, §2, §3

Sequence of 30S IC (P0A705 whole entry, looked up): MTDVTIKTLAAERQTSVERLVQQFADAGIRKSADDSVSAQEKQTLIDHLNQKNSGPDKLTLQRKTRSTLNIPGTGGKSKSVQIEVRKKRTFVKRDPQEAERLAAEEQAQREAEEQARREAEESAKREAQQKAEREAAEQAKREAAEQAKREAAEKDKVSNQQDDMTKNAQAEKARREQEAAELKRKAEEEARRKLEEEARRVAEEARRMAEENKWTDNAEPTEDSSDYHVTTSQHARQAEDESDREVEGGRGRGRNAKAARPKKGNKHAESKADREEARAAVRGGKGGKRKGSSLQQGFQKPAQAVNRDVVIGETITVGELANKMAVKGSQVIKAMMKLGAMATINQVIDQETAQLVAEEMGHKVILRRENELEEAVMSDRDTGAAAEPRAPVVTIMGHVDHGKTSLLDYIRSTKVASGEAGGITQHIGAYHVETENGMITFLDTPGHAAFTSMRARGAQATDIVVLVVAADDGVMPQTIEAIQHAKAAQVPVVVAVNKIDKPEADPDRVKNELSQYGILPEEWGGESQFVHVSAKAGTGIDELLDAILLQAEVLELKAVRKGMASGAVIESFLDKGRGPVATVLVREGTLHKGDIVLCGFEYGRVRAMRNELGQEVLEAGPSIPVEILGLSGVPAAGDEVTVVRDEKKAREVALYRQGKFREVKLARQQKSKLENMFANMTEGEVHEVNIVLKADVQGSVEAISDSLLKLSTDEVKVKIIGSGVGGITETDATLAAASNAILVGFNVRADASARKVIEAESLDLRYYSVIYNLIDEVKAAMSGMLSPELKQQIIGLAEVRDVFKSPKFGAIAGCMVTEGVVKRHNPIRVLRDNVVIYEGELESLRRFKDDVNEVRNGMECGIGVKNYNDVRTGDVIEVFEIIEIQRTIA
T2 sequence (P0A705 whole entry, looked up): as above
T1 sequence (P0A705 whole entry, looked up): as above

Nc1nc2c(ncn2[C@@H]2O[C@H](COP(=O)(O)OP(=O)(O)O)[C@@H](OP(=O)(O)OP(=O)(O)O)[C@H]2O)c(=O)[nH]1 [ppGpp]
Ki (30S IC; mRNA mInfA, read-out: 30S IC Ki (μM), replicates): 0.598 µM and 0.576 µM and 0.587 µM | Ki (30S IC; mRNA mInfA, read-out: 30S IC Ki Average): 0.587 µM | Ki (30S IC; mRNA mTufA, read-out: 30S IC Ki (μM), replicates): 2.19 µM and 2.21 µM and 2.22 µM | Ki (30S IC; mRNA mTufA, read-out: 30S IC Ki Average): 2.21 µM | efficiency (amplitude) of 70S pre-IC formation ([1]; 0.2 mM nucleotide, no GTP): reduced efficiencies | rapid 70S pre-IC formation in the absence of GTP ([1]; 0.2 mM nucleotide, noncompetitive (S6 Fig)): negligible | A0, best-fit value ([1]; mInfA): 1.01 | K1, best-fit value ([1]; mInfA): 1.203 and 1.20 | k2, best-fit value ([1]; mInfA): 0.0007 and 0.000671 | A0, best-fit value ([1]; mMF1): 1.01 | K1, best-fit value ([1]; mMF1): 2.759 and 2.76 | k2, best-fit value ([1]; mMF1): 0.0007 and 0.000692 | LS amplitude (a.u.) Avg ([1]; mRNA mInfA): 0.011 a.u. | kfast (s-1) Avg ([1]; mRNA mInfA): 1.20 s⁻¹ | LS amplitude (a.u.) Avg ([1]; mRNA mMF1): 0.012 a.u. | kfast (s-1) Avg ([1]; mRNA mMF1): 2.76 s⁻¹ | LS amplitude (a.u.) Avg ([1]; mRNA mTufA): 0.035 a.u. | kfast (s-1) Avg ([1]; mRNA mTufA): 3.76 s⁻¹ | A0, best-fit value ([1]; mTufA): 1.03 | K1, best-fit value ([1]; mTufA): 3.763 and 3.76 | k2, best-fit value ([1]; mTufA): 0.0010 and 0.00104 | P.D. Average ([2]; mInfA, Log [ppGpp] 1.00): 2.85 a.u.x10^4 | P.D. Replicates (a.u.x10^4) ([2]; mInfA, Log [ppGpp] 1.00): 2.78 a.u.x10^4 and 2.92 a.u.x10^4 and 2.86 a.u.x10^4 | P.D. Average ([2]; mInfA, Log [ppGpp] 2.40): 2.28 a.u.x10^4 | P.D. Replicates (a.u.x10^4) ([2]; mInfA, Log [ppGpp] 2.40): 2.16 a.u.x10^4 and 2.34 a.u.x10^4 and 2.33 a.u.x10^4 | P.D. Average ([2]; mInfA, Log [ppGpp] 2.70): 1.67 a.u.x10^4 | P.D. Replicates (a.u.x10^4) ([2]; mInfA, Log [ppGpp] 2.70): 1.54 a.u.x10^4 and 1.80 a.u.x10^4 and 1.68 a.u.x10^4 | P.D. Average ([2]; mInfA, Log [ppGpp] 3.00): 0.00 a.u.x10^4 | P.D. Replicates (a.u.x10^4) ([2]; mInfA, Log [ppGpp] 3.00): 0.00 a.u.x10^4 | P.D. Average ([2]; mInfA, Log [ppGpp] 3.30): 0.00 a.u.x10^4 | P.D. Replicates (a.u.x10^4) ([2]; mInfA, Log [ppGpp] 3.30): 0.00 a.u.x10^4 | P.D. Average ([2]; mInfA, Log [ppGpp] 3.60): 0.00 a.u.x10^4 | P.D. Replicates (a.u.x10^4) ([2]; mInfA, Log [ppGpp] 3.60): 0.00 a.u.x10^4 | Ki ([2]; mRNA mInfA, read-out: Translation Efficiency Ki (μM), replicates): 0.816 µM and 0.72 µM and 0.838 µM | Ki ([2]; mRNA mInfA, read-out: Translation Efficiency Ki Average): 0.791 µM | Ki ([2]; mRNA mTufA, read-out: Translation Efficiency Ki (μM), replicates): 2.23 µM and 2.32 µM and 2.09 µM | Ki ([2]; mRNA mTufA, read-out: Translation Efficiency Ki Average): 2.21 µM | P.D. Average ([2]; mTufA, Log [ppGpp] 1.00): 6.41 a.u.x10^4 | P.D. Replicates (a.u.x10^4) ([2]; mTufA, Log [ppGpp] 1.00): 6.33 a.u.x10^4 and 6.50 a.u.x10^4 and 6.41 a.u.x10^4 | P.D. Average ([2]; mTufA, Log [ppGpp] 2.40): 5.17 a.u.x10^4 | P.D. Replicates (a.u.x10^4) ([2]; mTufA, Log [ppGpp] 2.40): 5.12 a.u.x10^4 and 5.25 a.u.x10^4 and 5.15 a.u.x10^4 | P.D. Average ([2]; mTufA, Log [ppGpp] 2.70): 4.76 a.u.x10^4 | P.D. Replicates (a.u.x10^4) ([2]; mTufA, Log [ppGpp] 2.70): 4.72 a.u.x10^4 and 4.86 a.u.x10^4 and 4.70 a.u.x10^4 | P.D. Average ([2]; mTufA, Log [ppGpp] 3.00): 3.38 a.u.x10^4 | P.D. Replicates (a.u.x10^4) ([2]; mTufA, Log [ppGpp] 3.00): 3.31 a.u.x10^4 and 3.47 a.u.x10^4 and 3.35 a.u.x10^4 | P.D. Average ([2]; mTufA, Log [ppGpp] 3.30): 2.72 a.u.x10^4 | P.D. Replicates (a.u.x10^4) ([2]; mTufA, Log [ppGpp] 3.30): 2.68 a.u.x10^4 and 2.81 a.u.x10^4 and 2.66 a.u.x10^4 | P.D. Average ([2]; mTufA, Log [ppGpp] 3.60): 1.21 a.u.x10^4 | P.D. Replicates (a.u.x10^4) ([2]; mTufA, Log [ppGpp] 3.60): 1.18 a.u.x10^4 and 1.24 a.u.x10^4 and 1.21 a.u.x10^4 | efficiency (amplitude) of 70S IC formation (Bpy-tRNAi accommodation) (70S IC; 0.2 mM nucleotide, no GTP): reduced efficiencies | A0, best-fit value (70S IC; mInfA): 0.98 | A1, best-fit value (70S IC; mInfA): 0.01 | K1, best-fit value (70S IC; mInfA): 1.82 | k2, best-fit value (70S IC; mInfA): -0.00033 | A0, best-fit value (70S IC; mMF1): 0.97 | A1, best-fit value (70S IC; mMF1): 0.0267 | K1, best-fit value (70S IC; mMF1): 1.27 | k2, best-fit value (70S IC; mMF1): -0.00023 | Fluorescence Amplitude Avg (70S IC; mRNA mInfA): 0.010 | kfast (s-1) Avg (70S IC; mRNA mInfA): 1.82 s⁻¹ | Fluorescence Amplitude Avg (70S IC; mRNA mMF1): 0.027 | kfast (s-1) Avg (70S IC; mRNA mMF1): 1.27 s⁻¹ | Fluorescence Amplitude Avg (70S IC; mRNA mTufA): 0.043 | kfast (s-1) Avg (70S IC; mRNA mTufA): 3.37 s⁻¹ | A0, best-fit value (70S IC; mTufA): 0.96 | A1, best-fit value (70S IC; mTufA): 0.0429 | K1, best-fit value (70S IC; mTufA): 3.37 | k2, best-fit value (70S IC; mTufA): -0.00059
